Structures are written as SMILES.

For the experiment, the system named is U2OS cells expressing HaloTag–H2B. The experiment can be described thus: Dye loading kinetics. It counts as cell-based. The settings on record: 200 nM. The method, then:
U2OS cell culture, labeling, and fluorescence microscopy. U2OS cells (ATCC) were cultured in Dulbecco's modified Eagle medium (DMEM, phenol red-free; Life Technologies) supplemented with 10% (v/v) fetal bovine serum (FBS, Life Technologies), 1 mM GlutaMAX (Life Technologies) and maintained at 37 °C in a humidified 5% (v/v) CO2 environment. These cell lines undergo regular mycoplasma testing by the Janelia Cell Culture Facility. U2OS cells stably expressing an integrated HaloTag–histone H2B fusion protein (U2OS.H2B.HaloTag) were used for nuclear imaging and imaged 18–24 h post-plating. […]
Fixed cells were then washed
3× in 1× PBS and incubated with Hoechst 33342 (5µg/mL) for 15 min at 22 °C as a nuclear counterstain. Airyscan imaging was performed on a Zeiss LSM 980 with Airyscan 2 confocal microscope using a Plan APO 63×/1.4 oil DIC M27 objective. The same acquisition settings were used for all constructs labeled with 13HTL–16HTL. These single plane images were bulk processed in ZEN Blue (Zeiss) with automatic Airyscan settings.
Dye loading kinetics. Live U2OS.H2B.HaloTag stable cells were labeled over a time course of 0–4 h with 200 nM of biotin-JF549-HaloTag ligand (13HTL), biotin-JF608-HaloTag ligand (14HTL), biotin-JF646-HaloTag ligand (15HTL), or biotin-JF635-HaloTag ligand (16HTL) at 37 °C. Cells were […]
then washed 3× with dye-free media, fixed with 4% paraformaldehyde in 0.1 M phosphate buffer, pH 7.4 for 15 min at 37 °C. Confocal imaging was performed on a Leica SP8 with an HC PL APO CS2 20×/0.75 immersion objective using the tunable white light laser ( WLL) to excite dyes at their λabs in constant power mode. Fluorescence was quantified as the average integrated density of background corrected nuclear signals from confocal image stack projections analyzed in Fiji;14 n = 100 nuclear signals per compound. […]
(IB) consisting of KCl (0.18 M), ethylene glycol-bis(β-aminoethyl ether)-N,N,N′,N′-tetraacetic acid (EGTA; 1 mM), 3-(N-morpholino)propanesulfonic acid (MOPS; 5 mM); the pH was adjusted to pH = 7.35 using KOH(aq).15 StrepTactin Microbeads (IBA Lifesciences, 6-5510-050) were used as capture reagents as these beads had lowest amount of background observed in our hands. […]
The post-bead supernatant and wash volumes were pooled and spun at 15,000 g for 12 min. […] The affinity capture pulldown efficiency was monitored using in-gel fluorescence. The msGFP signal from HaloTag-TEV-4×GS-msGFP-mito after cell lysis and SDS-PAGE was analyzed, in-gel, using a Bio-Rad Chemidoc MP imager (Bio-Rad) through GFP fluorescence excitation and emission filters. Data were quantified by densitometry using Fiji.14 Capture efficiency was […]

In the case of `O=C(CCCCC1SCC2NC(=O)NC21)NCCOCCOCCNC(=O)C1C[N+](=c2ccc3c(-c4cc(C(=O)NCCOCCOCCCCCCCl)ccc4C(=O)[O-])c4ccc(N5CCC5)cc4oc-3c2)C1` (stereo not shown) [13HTL, biotin–JF549–HaloTag ligand], the “intracellular labeling over 4 h” value was “negligible intracellular labeling”.
Turning to `CC1(C)C2=CC(=[N+]3CC(C(=O)NCCOCCOCCNC(=O)CCCC[C@@H]4SC[C@@H]5NC(=O)N[C@@H]54)C3)C=CC2=C(c2cc(C(=O)NCCOCCOCCCCCCCl)ccc2C(=O)[O-])c2ccc(N3CCC3)cc21` (stereo partly shown) [14HTL, biotin–JF608–HaloTag ligand], the “time to maximal intensity” value was determined as 4 h.
Same read-out and setting: as for `C[Si]1(C)C2=CC(=[N+]3CC(C(=O)NCCOCCOCCNC(=O)CCCC[C@@H]4SC[C@@H]5NC(=O)N[C@@H]54)C3)C=CC2=C(c2cc(C(=O)NCCOCCOCCCCCCCl)ccc2C(=O)[O-])c2ccc(N3CCC3)cc21` (stereo partly shown) [15HTL, biotin–JF646–HaloTag ligand], the figure is 1 h; as for `C[Si]1(C)C2=CC(=[N+]3CC(F)(C(=O)NCCOCCOCCNC(=O)CCCC[C@@H]4SC[C@@H]5NC(=O)N[C@@H]54)C3)C=CC2=C(c2cc(C(=O)NCCOCCOCCCCCCCl)ccc2C(=O)[O-])c2ccc(N3CC(F)C3)cc21` (stereo partly shown) [16HTL, biotin–JF635–HaloTag ligand], 1 h.

For the origin of these results see publication PMC12595484, “Optimizing multifunctional fluorescent ligands for intracellular labeling” (Proceedings of the National Academy of Sciences of the …, 2025).
